Assays:
PI3Kγ = biological target: T1, PI3Kγ (Homo sapiens, UniProt P48736); assay: PI3Kγ cellular assay in THP-1 cells (AKT pS473 AlphaLISA); format: cell-based; conditions: Table 1, rhMCP-1 stimulated AKT pS473, read-out: cellular potency (PI3Kγ IC50)
T1 construct: host or cells: THP-1
Summary of the method: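 Endogenous AKT S473 phosphorylation, detected by AlphaLISA in lysates, serves as the PI3Kγ activity read-out in stimulated, serum-starved THP-1 cells (1.8×10^5/well).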

PI3Kγ (p120γ) = biological target: T2, PI3Kγ (p120γ) (Homo sapiens, UniProt P48736); assay: Inhibition of PI3K kinase activity (ADP Glo), PI3Kγ; conditions: Table 1, p120γ, read-out: biochemical potency (PI3Kγ IC50)
T2 construct: purchased Promega V1761
Summary of the method: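 IC50 values come from a 4-parameter nonlinear fit of ADP-Glo luminescence, which measures ADP produced as PIP2 is phosphorylated to PIP3. The p120γ enzyme (2× stock 8 nM) sat with compound 1 h at rt before substrate (2× stocks: 50 μM ATP, 0.1 mg/ml PIP2) was added. Phosphorylation then proceeded 60 min at rt.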

T1 sequence (P48736 whole entry): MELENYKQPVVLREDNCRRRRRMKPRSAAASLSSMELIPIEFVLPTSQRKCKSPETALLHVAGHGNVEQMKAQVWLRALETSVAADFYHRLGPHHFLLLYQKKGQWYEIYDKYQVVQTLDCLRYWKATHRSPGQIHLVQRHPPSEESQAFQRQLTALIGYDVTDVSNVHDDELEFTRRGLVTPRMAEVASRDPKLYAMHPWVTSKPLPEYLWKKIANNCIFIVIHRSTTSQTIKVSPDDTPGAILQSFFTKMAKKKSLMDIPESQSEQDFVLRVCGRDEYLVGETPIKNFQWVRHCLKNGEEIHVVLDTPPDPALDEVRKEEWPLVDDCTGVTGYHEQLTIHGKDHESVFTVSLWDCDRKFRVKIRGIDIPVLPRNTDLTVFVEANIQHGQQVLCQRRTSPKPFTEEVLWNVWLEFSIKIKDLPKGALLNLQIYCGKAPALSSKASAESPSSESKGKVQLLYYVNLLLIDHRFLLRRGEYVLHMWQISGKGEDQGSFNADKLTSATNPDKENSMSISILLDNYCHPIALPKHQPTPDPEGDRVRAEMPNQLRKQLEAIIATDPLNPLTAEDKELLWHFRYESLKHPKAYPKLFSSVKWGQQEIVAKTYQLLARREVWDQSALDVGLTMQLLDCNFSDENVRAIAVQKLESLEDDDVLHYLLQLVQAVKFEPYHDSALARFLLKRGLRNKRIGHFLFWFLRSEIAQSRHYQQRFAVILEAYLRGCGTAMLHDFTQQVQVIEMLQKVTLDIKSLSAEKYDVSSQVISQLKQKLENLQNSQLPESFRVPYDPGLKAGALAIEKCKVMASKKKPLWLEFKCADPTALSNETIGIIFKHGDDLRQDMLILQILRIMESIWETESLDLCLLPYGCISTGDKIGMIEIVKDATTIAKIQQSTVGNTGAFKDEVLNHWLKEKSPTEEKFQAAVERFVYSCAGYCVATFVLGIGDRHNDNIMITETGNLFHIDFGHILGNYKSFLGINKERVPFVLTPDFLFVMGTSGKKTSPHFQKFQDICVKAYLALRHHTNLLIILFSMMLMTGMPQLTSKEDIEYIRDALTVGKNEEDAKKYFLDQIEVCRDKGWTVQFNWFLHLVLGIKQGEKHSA
T2 sequence (P48736 whole entry): as above

Structure (SMILES)	IC50 (PI3Kγ) [nM]	IC50 (PI3Kγ (p120γ)) [nM]
Cc1cc(NC(=O)c2c(N)nn3ccc(-c4cc5c(c(NS(C)(=O)=O)c4)C(=O)N([C@@H](C)C4CC4)C5)nc23)cc(C)n1 [Example 102, (S)-2-Amino-5-(2-(1-cyclopropylethyl)-7-(methylsulfonamido)-1-oxoisoindolin-5-yl)-N-(2,6-dimethylpyridin-4-yl)pyrazolo[1,5-a]pyrimidine-3-carboxamide]	< 100	< 100
C[C@@H](C1CC1)N1Cc2cc(-c3ccn4nc(N)c(C(=O)Nc5ccc(C(C)(C)O)nc5)c4n3)cc(NS(C)(=O)=O)c2C1=O [Example 103, 2-Amino-5-{2-[(1S)-1-cyclopropylethyl]-7-methanesulfonamido-1-oxo-2,3-dihydro-1H-isoindol-5-yl}-N-[6-(2-hydroxypropan-2-yl)pyridin-3-yl]pyrazolo[1,5-a]pyrimidine-3-carboxamide]	< 100	< 100
C[C@@H](C1CC1)N1Cc2cc(-c3ccn4nc(N)c(C(=O)Nc5ccccc5)c4n3)cc(NS(C)(=O)=O)c2C1=O [Example 104, (S)-2-Amino-5-(2-(1-cyclopropylethyl)-7-(methylsulfonamido)-1-oxoisoindolin-5-yl)-N-phenylpyrazolo[1,5-a]pyrimidine-3-carboxamide]	< 100	< 100
C[C@@H](C1CC1)N1Cc2cc(-c3ccn4nc(N)c(C(=O)Nc5cnn(CC(F)(F)F)c5)c4n3)cc(NS(C)(=O)=O)c2C1=O [Example 106, 2-Amino-5-{2-[(1S)-1-cyclopropylethyl]-7-methanesulfonamido-1-oxo-2,3-dihydro-1H-isoindol-5-yl}-N-[1-(2,2,2-trifluoroethyl)-1H-pyrazol-4-yl]pyrazolo[1,5-a]pyrimidine-3-carboxamide]	< 100	< 100
Cc1nn(C)cc1NC(=O)c1c(N)nn2ccc(-c3cc4c(c(NS(C)(=O)=O)c3)C(=O)N([C@@H](C)C3CC3)C4)nc12 [Example 107, 2-Amino-5-{2-[(1S)-1-cyclopropylethyl]-7-methanesulfonamido-1-oxo-2,3-dihydro-1H-isoindol-5-yl}-N-(1,3-dimethyl-1H-pyrazol-4-yl)pyrazolo[1,5-a]pyrimidine-3-carboxamide]	< 100	< 100
Cc1c(NC(=O)c2c(N)nn3ccc(-c4cc5c(c(NS(C)(=O)=O)c4)C(=O)N([C@@H](C)C4CC4)C5)nc23)cnn1C [Example 108, 2-Amino-5-{2-[(1S)-1-cyclopropylethyl]-7-methanesulfonamido-1-oxo-2,3-dihydro-1H-isoindol-5-yl}-N-(1,5-dimethyl-1H-pyrazol-4-yl)pyrazolo[1,5-a]pyrimidine-3-carboxamide]	< 100	< 100
CCS(=O)(=O)Nc1cc(-c2ccn3nc(N)c(C(=O)Nc4cccnc4)c3n2)cc2c1C(=O)N([C@@H](C)C1CC1)C2 [Example 112, 2-Amino-5-{2-[(1S)-1-cyclopropylethyl]-7-ethanesulfonamido-1-oxo-2,3-dihydro-1H-isoindol-5-yl}-N-(pyridin-3-yl)pyrazolo[1,5-a]pyrimidine-3-carboxamide]	< 100	< 100
COCCS(=O)(=O)Nc1cc(-c2ccn3nc(N)c(C(=O)NC4CC4)c3n2)cc2c1C(=O)N([C@@H](C)C1CC1)C2 [Example 113, 2-Amino-N-cyclopropyl-5-{2-[(1S)-1-cyclopropylethyl]-7-(2-methoxyethanesulfonamido)-1-oxo-2,3-dihydro-1H-isoindol-5-yl}pyrazolo[1,5-a]pyrimidine-3-carboxamide]	< 100	< 100
C[C@@H](C1CC1)N1Cc2cc(-c3ccn4nc(N)c(C(=O)NC5CC5)c4n3)cc(N(C)S(C)(=O)=O)c2C1=O [Example 114, 2-Amino-N-cyclopropyl-5-{2-[(1S)-1-cyclopropylethyl]-7-(N-methylmethanesulfonamido)-1-oxo-2,3-dihydro-1H-isoindol-5-yl}pyrazolo[1,5-a]pyrimidine-3-carboxamide]	< 100	< 100
C[C@H](N1Cc2cc(-c3ccn4nc(N)c(C(=O)NC5CC5)c4n3)cc(NS(C)(=O)=O)c2C1=O)C(F)(F)F [Example 115, 2-Amino-N-cyclopropyl-5-{7-methanesulfonamido-1-oxo-2-[(2S)-1,1,1-trifluoropropan-2-yl]-2,3-dihydro-1H-isoindol-5-yl}pyrazolo[1,5-a]pyrimidine-3-carboxamide]	< 100	< 100
C[C@H](N1Cc2cc(-c3ccn4nc(N)c(C(=O)NC5(C#N)COC5)c4n3)cc(NS(C)(=O)=O)c2C1=O)C(F)(F)F [Example 117, (S)-2-Amino-N-(3-cyanooxetan-3-yl)-5-(7-(methylsulfonamido)-1-oxo-2-(1,1,1-trifluoropropan-2-yl)isoindolin-5-yl)pyrazolo[1,5-a]pyrimidine-3-carboxamide]	< 100	< 100
C[C@H](CO)NC(=O)c1c(N)nn2ccc(-c3cc4c(c(NS(C)(=O)=O)c3)C(=O)N([C@@H](C)C(F)(F)F)C4)nc12 [Example 118, 2-Amino-N-[(2R)-1-hydroxypropan-2-yl]-5-{7-methanesulfonamido-1-oxo-2-[(2S)-1,1,1-trifluoropropan-2-yl]-2,3-dihydro-1H-isoindol-5-yl}pyrazolo[1,5-a]pyrimidine-3-carboxamide]	< 100	< 100
C[C@H](N1Cc2cc(-c3ccn4nc(N)c(C(=O)N[C@H]5C[C@H](O)C5)c4n3)cc(NS(C)(=O)=O)c2C1=O)C(F)(F)F [Example 121, 2-Amino-5-{7-methanesulfonamido-1-oxo-2-[(2S)-1,1,1-trifluoropropan-2-yl]-2,3-dihydro-1H-isoindol-5-yl}-N-[trans-3-hydroxycyclobutyl]pyrazolo[1,5-a]pyrimidine-3-carboxamide]	< 100	< 100
C[C@H](N1Cc2cc(-c3ccn4nc(N)c(C(=O)N[C@H]5CC[C@@](C)(O)CC5)c4n3)cc(NS(C)(=O)=O)c2C1=O)C(F)(F)F [Example 122, 2-Amino-5-{7-methanesulfonamido-1-oxo-2-[(2S)-1,1,1-trifluoropropan-2-yl]-2,3-dihydro-1H-isoindol-5-yl}-N-[cis-4-hydroxy-4-methylcyclohexyl]pyrazolo[1,5-a]pyrimidine-3-carboxamide]	< 100	< 100

Further lines, results first:

IC50 (PI3Kγ) [nM]	IC50 (PI3Kγ (p120γ)) [nM]	Structure (SMILES)
< 100	< 100	C[C@@H](C1CC1)N1Cc2cc(-c3ccn4nc(N)c(C(=O)Nc5ccc(CO)cc5)c4n3)cc(NS(C)(=O)=O)c2C1=O [Example 105, 2-Amino-5-{2-[(1S)-1-cyclopropylethyl]-7-methanesulfonamido-1-oxo-2,3-dihydro-1H-isoindol-5-yl}-N-[4-(hydroxymethyl)phenyl]pyrazolo[1,5-a]pyrimidine-3-carboxamide]
100 to 1000	< 100	C[C@@H](C1CC1)N1Cc2cc(-c3ccn4nc(N)c(C(=O)Nc5ncn(C)n5)c4n3)cc(NS(C)(=O)=O)c2C1=O [Example 109, 2-Amino-5-{2-[(1S)-1-cyclopropylethyl]-7-methanesulfonamido-1-oxo-2,3-dihydro-1H-isoindol-5-yl}-N-(1-methyl-1H-1,2,4-triazol-3-yl)pyrazolo[1,5-a]pyrimidine-3-carboxamide]
< 100	< 100	CCS(=O)(=O)Nc1cc(-c2ccn3nc(N)c(C(=O)NC4CC4)c3n2)cc2c1C(=O)N([C@@H](C)C1CC1)C2 [Example 110, 2-Amino-N-cyclopropyl-5-{2-[(1S)-1-cyclopropylethyl]-7-ethanesulfonamido-1-oxo-2,3-dihydro-1H-isoindol-5-yl}pyrazolo[1,5-a]pyrimidine-3-carboxamide]
< 100	< 100	CCS(=O)(=O)Nc1cc(-c2ccn3nc(N)c(C(=O)N[C@H]4C[C@](C)(O)C4)c3n2)cc2c1C(=O)N([C@@H](C)C1CC1)C2 [Example 111, 2-Amino-5-{2-[(1S)-1-cyclopropylethyl]-7-ethanesulfonamido-1-oxo-2,3-dihydro-1H-isoindol-5-yl}-N-[trans-3-hydroxy-3-methylcyclobutyl]pyrazolo[1,5-a]pyrimidine-3-carboxamide]
< 100	< 100	C[C@H](N1Cc2cc(-c3ccn4nc(N)c(C(=O)NC5COC5)c4n3)cc(NS(C)(=O)=O)c2C1=O)C(F)(F)F [Example 116, 2-Amino-5-{7-methanesulfonamido-1-oxo-2-[(2S)-1,1,1-trifluoropropan-2-yl]-2,3-dihydro-1H-isoindol-5-yl}-N-(oxetan-3-yl)pyrazolo[1,5-a]pyrimidine-3-carboxamide]
< 100	< 100	CC[C@H](CO)NC(=O)c1c(N)nn2ccc(-c3cc4c(c(NS(C)(=O)=O)c3)C(=O)N([C@@H](C)C(F)(F)F)C4)nc12 [Example 119, 2-Amino-N-[(2R)-1-hydroxybutan-2-yl]-5-{7-methanesulfonamido-1-oxo-2-[(2S)-1,1,1-trifluoropropan-2-yl]-2,3-dihydro-1H-isoindol-5-yl}pyrazolo[1,5-a]pyrimidine-3-carboxamide]
< 100	< 100	C[C@H](N1Cc2cc(-c3ccn4nc(N)c(C(=O)N[C@@H](CO)C5CC5)c4n3)cc(NS(C)(=O)=O)c2C1=O)C(F)(F)F [Example 120, 2-Amino-N-((R)-1-cyclopropyl-2-hydroxyethyl)-5-(7-(methylsulfonamido)-1-oxo-2-((S)-1,1,1-trifluoropropan-2-yl)isoindolin-5-yl)pyrazolo[1,5-a]pyrimidine-3-carboxamide]

— patent US20230024302A1, “2,3,5-TRISUBSTITUTED PYRAZOLO[1,5-A]PYRIMIDINE COMPOUNDS” (Arcus Biosciences, Inc., priority 2019, published 2023)
